From publication PMC4985754, “Folding analysis of the most complex Stevedore’s protein knot” (Scientific Reports, 2016)

T1: DehI (Pseudomonas putida, UniProt Q8GJ84)
T1 construct: domains 1-130 and 166-296, linker 131-165
T1 sequence (Q8GJ84 1-296): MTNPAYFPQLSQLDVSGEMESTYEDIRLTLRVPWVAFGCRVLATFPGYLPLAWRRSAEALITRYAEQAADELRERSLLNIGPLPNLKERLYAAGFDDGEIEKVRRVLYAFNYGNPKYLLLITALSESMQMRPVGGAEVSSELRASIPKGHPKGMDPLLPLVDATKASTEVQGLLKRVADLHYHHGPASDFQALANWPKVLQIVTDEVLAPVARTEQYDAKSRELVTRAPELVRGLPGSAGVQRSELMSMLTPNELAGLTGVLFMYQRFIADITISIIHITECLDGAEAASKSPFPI


What was measured:
[1] = target: T1, DehI; assay: colorimetric phenol red dehalogenase assay, absorbance at […] nm; type: biochemical; details: 10 mM substrate, 10 uM enzyme, 50 mM HEPES pH 8.2, 20 mM Na2SO4, 1 mM EDTA, room temperature overnight
[2] = target: the molecule itself; assay: SEC-MALS; DehI in solution, mono-dispersed major elution peak; buffer A (20 mM potassium phosphate pH 8, 300 mM NaCl) unless stated otherwise; observed MW compared with the theoretical MW of the homodimer

| Molecule | colorimetric phenol red dehalogenase assay, absorbance at 559 nm [1] | stoichiometry N [2] |
| --- | --- | --- |
| CC(Cl)C(=O)O (centres unmarked) [2-chloropropionic acid] | 2-chloropropionic acid was used as the substrate of DehI |  |
| DehI, α-haloacid dehalogenase from Pseudomonas putida strain PP3 (enzyme, DehI, α-haloacid dehalogenase, Pseudomonas putida strain PP3; No tag cleavage is described; The theoretical MW of the homodimer is printed as 69.9 kDa, which may include the tag (surmise); also called wt; source: E. coli BL21 (DE3), purified (HisTrap HP, Superdex 200 SEC)) MTNPAYFPQLSQLDVSGEMESTYEDIRLTLRVPWVAFGCRVLATFPGYLPLAWRRSAEALITRYAEQAADELRERSLLNIGPLPNLKERLYAAGFDDGEIEKVRRVLYAFNYGNPKYLLLITALSESMQMRPVGGAEVSSELRASIPKGHPKGMDPLLPLVDATKASTEVQGLLKRVADLHYHHGPASDFQALANWPKVLQIVTDEVLAPVARTEQYDAKSRELVTRAPELVRGLPGSAGVQRSELMSMLTPNELAGLTGVLFMYQRFIADITISIIHITECLDGAEAASKSPFPI |  | 2 |
